In patent US11813239B2, “Compositions and methods for improving cardiac structure and/or function” (Wisconsin Alumni Research Foundation, priority 2020, dated 2023):

Legend:
SDH = SDH (Homo sapiens, UniProt O14521+P21912+Q99643); conditions: literature reference 21 (Miyadera et al. 2003); cited from earlier work
cardiomyocytes = test: Immunostaining (pH3, Aurora B), WGA and trichrome staining after MI in P7 mice; conditions: vs controls
From the text: We then analyzed the hearts following injury to determine whether malonate results in prolongation of the neonatal regenerative window (FIG. 5A). To examine whether malonate stimulates cardiomyocyte proliferation, we performed MI in 7-day-old mice and analyzed their hearts at 7 days post-MI by immunostaining for markers of proliferation.
(§1) Neonatal mice at postnatal day 1 (P1) or day 7 (P7) were used for myocardial infarction (MI) surgery. Neonatal mice were subjected to MI surgeries as previously described. Briefly, neonates were anesthetized by hypothermia on ice. Lateral thoracotomy at the fourth intercostal space was performed by blunt dissection of the intercostal muscles after skin incision. A C-1 tapered needle attached to a 6-0 prolene suture (Ethicon Inc., Bridgewater, N.J.) was passed through the mid-ventricle below the left anterior descending coronary artery (LAD) and tied off to induce MI. The prolene suture was used to suture the ribs together and seal the chest wall incisions, and the skin was closed using adhesive glue (3M). The mice then were warmed on a heating pad until recovery. Sham-operated mice underwent the same procedure including hypothermic anesthesia, but not LAD ligation.
(§2) Neonatal mice were weighed and injected daily with either saline, 100 mg/kg dimethyl succinate (Sigma), 100 mg/kg dimethyl malonate (Sigma), or 100 μg/kg Atpenin A5 (Enzo Life Sciences). Dimethyl succinate and dimethyl malonate were dissolved in saline. Stock solution of Atpenin A5 at 0.1 mg/ml was initially prepared by dissolving in DMSO (Sigma) and then further diluted with saline before injection. Saline was used as a vehicle control for all experiments.
Hearts were harvested and fixed in 4% paraformaldehyde (PFA) in PBS solution overnight at 4° C., processed for paraffin embedding, and sectioned in intervals. Masson's trichrome staining was performed according to the manufacture's protocol (Newcomer Supply, Middleton, WI). Scar size measurements were quantified from at least 3 sections of the heart from ligature to apex. ImageJ was used to quantify the fibrotic scar, and the average scar area for each heart was plotted.
We injected dimethyl malonate (100 mg/kg, daily) in neonatal mice directly after birth for 2 weeks with an MI performed once the mice reached P7.

[1] = test system: postnatal (P7) mouse heart following myocardial infarction; test: Echocardiography after myocardial infarction in P7 juvenile mice; conditions: for % EF (Ejection Fraction) / % FS (Fractional Shortening) / LV Mass (Left Ventricular Mass, Anatomical Weight) / LV Vol; d (Left Ventricular Volume; diastole) / LV Vol; s (Left Ventricular Volume; systole) / LVAWD (Left Ventricle Anterior Wall Thickness Diastole) / LVAWS (Left Ventricle Anterior Wall Thickness Systole) / LVIDD (Left Ventricle Internal Diameter Diastole) / LVIDS (Left Ventricle Internal Diameter Systole) / LVPWD (Left Ventricle Posterior Wall Thickness Diastole) / LVPWS (Left Ventricle Posterior Wall Thickness Systole): Atpenin A5 100 μg/kg daily, mean ± SE
Method: as §1, §2
Transthoracic echocardiography was performed by using a Visual Sonics 770 ultrasonograph with a 25-MHz transducer (Visual Sonics, Toronto) as described previously^19. Mice were lightly anesthetized with 1% isoflurane and maintained on a heated platform. Two-dimensionally guided M-mode images from a parasternal long axis (PLAX) of the left ventricle (LV) were acquired at the tip of the papillary muscles. Wall thickness and chamber diameters were measured in both diastole and systole. Fractional shortening was calculated as (LVDd−LVDs)/LVDd×100, where LVDd is LV diameter in diastole and LVDs is LV diameter in systole. Ejection fraction was calculated as [(7.0/(2.4+LVDd)(LVDd)^3−(7.0/(2.4+LVDs)(LVDs)^3/(7.0/(2.4+LVDd)(LVDd)^3×100 and LV mass was calculated by using the formula [1.05×((Posterior Walldiastole+Anterior Walldiastole+LVDd)^3−(LVDd)^3)]. All parameters were measured over at least three consecutive cycles.
We injected dimethyl malonate (100 mg/kg, daily) in neonatal mice directly after birth for 2 weeks with an MI performed once the mice reached P7. We then analyzed the hearts following injury to determine whether malonate results in prolongation of the neonatal regenerative window (FIG. 10A).

[2] = MI at P7, Atpenin A5 100 μg/kg daily, 7 days post-MI
[3] = MI at P7, Atpenin A5 100 μg/kg daily, 21 days post-MI
[4] = MI at P7 (n = 8), echo 21 days post-MI (P7D21)
[5] = sham at P7 (SH, n = 6), echo at day 21 (P7D21)

SDH, sequence (P31040 43-664 partner): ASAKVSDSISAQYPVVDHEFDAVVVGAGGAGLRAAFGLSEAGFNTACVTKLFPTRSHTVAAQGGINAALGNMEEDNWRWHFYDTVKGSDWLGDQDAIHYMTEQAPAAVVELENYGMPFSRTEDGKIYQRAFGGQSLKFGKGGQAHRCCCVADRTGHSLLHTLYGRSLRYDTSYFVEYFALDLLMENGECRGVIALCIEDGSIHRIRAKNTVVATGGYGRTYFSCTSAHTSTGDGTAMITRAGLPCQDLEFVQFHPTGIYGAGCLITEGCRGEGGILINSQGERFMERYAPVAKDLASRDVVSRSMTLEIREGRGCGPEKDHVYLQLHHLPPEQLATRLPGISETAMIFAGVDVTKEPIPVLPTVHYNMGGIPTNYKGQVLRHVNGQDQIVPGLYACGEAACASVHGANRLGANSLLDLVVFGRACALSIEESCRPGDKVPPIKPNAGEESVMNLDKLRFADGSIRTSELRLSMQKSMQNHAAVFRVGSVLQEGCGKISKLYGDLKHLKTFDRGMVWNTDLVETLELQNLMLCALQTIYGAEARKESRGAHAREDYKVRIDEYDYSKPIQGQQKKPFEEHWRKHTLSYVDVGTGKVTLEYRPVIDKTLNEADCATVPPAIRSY
SDH, sequence (P21912 29-280): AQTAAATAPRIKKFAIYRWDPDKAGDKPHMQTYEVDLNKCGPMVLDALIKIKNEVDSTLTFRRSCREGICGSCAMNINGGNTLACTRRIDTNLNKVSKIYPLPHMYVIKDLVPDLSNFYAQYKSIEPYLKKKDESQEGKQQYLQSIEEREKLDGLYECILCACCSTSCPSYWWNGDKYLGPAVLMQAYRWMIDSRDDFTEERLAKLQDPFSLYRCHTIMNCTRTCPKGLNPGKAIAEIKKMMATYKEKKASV
SDH, sequence (Q99643 30-169): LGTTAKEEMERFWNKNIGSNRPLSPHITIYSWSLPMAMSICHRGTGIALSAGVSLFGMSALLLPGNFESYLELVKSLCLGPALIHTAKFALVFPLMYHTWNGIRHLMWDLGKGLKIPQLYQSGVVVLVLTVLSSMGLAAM
SDH, sequence (O14521 57-159): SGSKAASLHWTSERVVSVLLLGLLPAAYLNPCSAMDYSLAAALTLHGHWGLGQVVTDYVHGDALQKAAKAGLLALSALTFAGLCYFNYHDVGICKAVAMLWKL

## COc1[nH]c(=O)c(C(=O)[C@@H](C)C[C@H](C)[C@@H](Cl)CCl)c(O)c1OC [Atpenin A5]
SDH
  inhibition of SDH: potent inhibitor of SDH
cardiomyocytes; [2]
  percentage of cardiomyocytes undergoing cytokinesis (Aurora B staining): significant increase
  percentage of cardiomyocytes undergoing mitosis (pH3 staining): significant increase
cardiomyocytes; [3]
  myocardial regeneration (trichrome staining): myocardial thickness at the infarct zone
  scar size (trichrome staining, ImageJ): significant reduction in scar size
[1]; [4]
  % EF (Ejection Fraction): 49.676 ± 2.072%
  % FS (Fractional Shortening): 24.642 ± 1.227%
  LV Mass (Left Ventricular Mass, Anatomical Weight): 54.203 ± 7.978 mg
  LV Vol; d (Left Ventricular Volume; diastole): 50.033 ± 6.416 µL
  LV Vol; s (Left Ventricular Volume; systole): 25.290 ± 3.427 µL
  LVAWD (Left Ventricle Anterior Wall Thickness Diastole): 0.525 ± 0.023 mm
  LVAWS (Left Ventricle Anterior Wall Thickness Systole): 0.644 ± 0.032 mm
  LVIDD (Left Ventricle Internal Diameter Diastole): 3.438 ± 0.167 mm
  LVIDS (Left Ventricle Internal Diameter Systole): 2.592 ± 0.132 mm
  LVPWD (Left Ventricle Posterior Wall Thickness Diastole): 0.521 ± 0.025 mm
  LVPWS (Left Ventricle Posterior Wall Thickness Systole): 0.643 ± 0.027 mm
[1]; MI at P7, Atpenin A5 100 μg/kg daily, 3 weeks post-MI
  cardiac function by echocardiography: restoration of cardiac function
[1]; [5]
  % EF (Ejection Fraction): 51.652 ± 3.984%
  % FS (Fractional Shortening): 25.773 ± 2.586%
  LV Mass (Left Ventricular Mass, Anatomical Weight): 42.822 ± 4.210 mg
  LV Vol; d (Left Ventricular Volume; diastole): 39.614 ± 7.039 µL
  LV Vol; s (Left Ventricular Volume; systole): 19.979 ± 4.374 µL
  LVAWD (Left Ventricle Anterior Wall Thickness Diastole): 0.493 ± 0.042 mm
  LVAWS (Left Ventricle Anterior Wall Thickness Systole): 0.615 ± 0.041 mm
  LVIDD (Left Ventricle Internal Diameter Diastole): 3.100 ± 0.229 mm
  LVIDS (Left Ventricle Internal Diameter Systole): 2.319 ± 0.221 mm
  LVPWD (Left Ventricle Posterior Wall Thickness Diastole): 0.536 ± 0.027 mm
  LVPWS (Left Ventricle Posterior Wall Thickness Systole): 0.648 ± 0.030 mm

## COC1=C(OC)C(=O)C(CCCCCCCCCC[P+](c2ccccc2)(c2ccccc2)c2ccccc2)=C(C)C1=O [MitoQ]
cardiomyocytes; MI at P7, MitoQ 10 mg/kg intraperitoneally daily for 2 weeks after birth, 7 days post-MI
  cardiomyocyte mitosis (pH3 immunostaining): significant increase in cardiomyocyte mitosis
[1]; MI at P7, MitoQ 10 mg/kg intraperitoneally daily for 2 weeks after birth, vs controls
  cardiac function by echocardiography (EF and FS): no improvement in cardiac function
